The subject of data set [1] is HeLa cells. Kind of data set: Cell adhesion experiments on lipid films of different multilayer thickness. The class given is cell-based. On the procedure:
Lipids were dissolved in ethanol and added to each channel in increasing amounts from 0.2 ng to 20 μg. Tests for cell attachment were performed by seeding HeLa cells into assay channel with varying amounts of lipid films. Cells were allowed to attach for two hours before washing the channels repeatedly 5 times. Prior to counting, cells were incubated with live-cell fluorescent dye (SYTO9, Invitrogen). The number of cells per square micron area (μm^2) that remained attached was counted manually. Experiments for cell adhesion where performed in three replicates. Values for cell density of each treatment were determined by averaging the number of cells in 5 random 100 μm^2 areas in a single image captured at a 4× magnification.
(§1) A student t-test was performed to determine statistical significance between means of each sample (p-value <0.05). Error bars in figures are standard error of the mean for n samples. Characterizing the edge lipid films produced a total of n=20 samples and middle lipid film measurements produced n=10 samples. Cell density experiments were performed in triplicates (n=3). All samples for cell migration were taken in triplicate and replicated three times (n=9).

Data set [2] concerns HeLa cells. Kind of data set: Cell migration assay of HeLa cells on lipid multilayer films made by evaporative edge lithography. As to conditions: for migration rate of HeLa cells versus lipid thickness: lipid only; for migration rate of HeLa cells versus lipid thickness / collective cell migration compared to control group: 24 hours; for HeLa cell migration (qualitative effect): drug delivered from encapsulated lipid films; for collective cell migration compared to control group: lipid encapsulated film. The class given is cell-based. On the procedure: Polydimethylsiloxane (PDMS) was cured from the SYLGARD® 184 silicone elastorner kit in a 60° C. oven overnight. PDMS strips of 15 mm long by 1 mm wide were placed between 500-800 μm apart on prepared glass coverslips before addition of lipid mixtures. 1,2-dioleoyl-3-trimethylammonium-propane (chloride salt) (DOTAP) and 1,2-dioleoyl-sn-glycerol-3-phosphoethanolamine-N-(lissamine rhodamine b sulfonyl) (ammonium salt) (DOPE-rhodamine) were purchased from Avanti Polar Lipids. To create lipid only solutions, DOTAP was mixed with 1 molar percent (mol %) DOPE-rhodamine in chloroform and dried overnight in a vacuum pump desiccators at 16 LM 15 Torr 7.4 PSIG to remove solvent. Ethanol (100%) was added to suspend dried lipid powder and 1 μl was deposited in each PDMS channel and the array was dried overnight in a vacuum to remove residual ethanol. A similar procedure was used for docetaxel encapsulated lipid solutions and the drug was dissolved in ethanol prior to adding to the dried lipid powder.
The prepared assays on glass coverslips were placed individually wells of a 6-well plate for cell culture. For experiments, cells were seeded onto the prepared patterned glass coverslips by gently pipetting the cell suspension (2.5×10^5 cells/ml, 1 ml per coverslip) directly over each PDMS channel to allow cells to settle in them. The same method was used to seed other parts of the slide for use as control areas. Cells were allowed to settle for 1-2 hours before the PDMS barriers were removed to promote cell migration. After barrier removal, the coverslips were washed once with HBSS and replaced with fresh growth media. The cells were incubated over the patterned areas for up to 24 hours. Width of each cell strip was measure by hand with Nikon Elements 4.0 analysis software and the average migration rate for each strip was determined with the following equation: Migration Rate (μm/hr)=(WidthT=24 hrs−WidthT=0 hrs/24hrs.
Width is the average width in micrometers (μm) of the cell monolayer measured either at the beginning of the experiment (T=0 hrs) or at the end (T=24 hours).
The images for cell migration were captured on a Nikon Ti Eclipse inverted microscope with 4× or 10× objectives. Images for cell migration were taken after barrier removal and once again 24 hours after incubation period in phase contrast. Fluorescent filters used were B-2E/C and G-2E/C for red and green emitting dyes.
as §1

For data set [3] the following is noted: cited from earlier work.
The conditions of data set [4]: cited from earlier work. The source holds these as a separate data set.

“Also recorded” adds a separate entry of the source.

For the compound `CCCCCCCC/C=C\CCCCCCCC(=O)OCC(C[N+](C)(C)C)OC(=O)CCCCCCC/C=C\CCCCCCCC.[Cl-]` (stereo not shown) [DOTAP, 1,2-dioleoyl-3-trimethylammonium-propane (chloride salt)], in the data set with HeLa cells [1] (concentrations higher than 20 μg/ml, 2 hours of incubation), the “HeLa cell adhesion to lipid films compared to untreated glass” value is given as “adhere significantly less (p<0.05)”. For the same compound, in the data set on HeLa cells [1] (films created from 20 ng (initial solution 20 μg/ml) or lower, 2 hours of incubation), the “HeLa cell adhesion to lipid films” value was “adherent”. Moreover, the “HeLa cell morphology and viability on lipid multilayers” value in the data set on HeLa cells [1] (lipid multilayers created from 200 ng of lipids or more, compared to thinner multilayers) is “exhibited abnormal morphology and appeared dead”. Moreover, the “migration rate of HeLa cells versus lipid thickness” value is on record as “not significantly (p<0.05) affected” with HeLa cells [2] (channels from lipid solutions of 20 μg/ml or lower) and “significantly hindered” in the data set with HeLa cells [2] (lipid solutions above 20 μg/ml).

The log P is a log measure of how a compound divides between an organic and an aqueous phase. As to `C[C@H]1CCC/C=C/[C@@H]2C[C@H](O)C[C@H]2[C@H](O)/C=C/C(=O)O1` [brefeldin A], the “HeLa cell migration (qualitative effect)” value in the data set with HeLa cells [2] is recorded as “inhibited”. The “log P” value in data set [3] was 1.61.

In the case of `CC(=O)O[C@@]12CO[C@@H]1C[C@H](O)[C@@]1(C)C(=O)[C@H](O)C3=C(C)[C@@H](OC(=O)[C@H](O)[C@@H](NC(=O)OC(C)(C)C)c4ccccc4)C[C@@](O)([C@@H](OC(=O)c4ccccc4)[C@H]21)C3(C)C` [docetaxel], in data set [4], the solubility in water result was “less than 0.025 mg/L”. The “migration rate of the cells, dose dependence” value in the data set with HeLa cells [2] (delivered by encapsulated lipid films, over 24 hours) was “reduced the migration rate of the cells dose-dependently”. The “collective cell migration compared to control group” value in the data set on HeLa cells [2] (docetaxel to lipid ratio (by mass) 1:2), with HeLa cells [2] (docetaxel to lipid ratio (by mass) 1:4) and in the data set on HeLa cells [2] (docetaxel to lipid ratio (by mass) 1:10) was “significantly (p<0.05) reduce collective cell migration” in each case. Further, the “HeLa cell migration (qualitative effect)” value with HeLa cells [2] is “significantly inhibit cellular migration; also recorded: inhibited”.

Source of the values: US9995732B2, “Evaporative edge lithography of a liposomal drug microarray for cell migration assays” (FLORIDA STATE UNIVERSITY RESEARCH FOUNDATION, priority 2012, dated 2018).
